Test results taken from patent US11180504B2 (ORCHID PHARMA LTD., priority 2016, dated 2021).
Values after ≈ are worked out from the molar mass of the structure shown. Read-outs that look alike come from different tables or passages of the source.

Assays:
[1] = system: methicillin-sensitive Staphylococcus aureus; test: MIC by broth micro-dilution (CLSI), methicillin-sensitive S. aureus; assay type: cell-based; conditions: MSSA S. aureus ATCC29213
[2] = system: carbapenem sensitive Escherichia coli; test: MIC by broth micro-dilution (CLSI), carbapenem sensitive E. coli; assay type: cell-based
[3] = system: carbapenemase producing K. pneumoniae; test: MIC by broth micro-dilution (CLSI), carbapenemase producing K. pneumoniae; assay type: cell-based, Klebsiella pneumoniae
[4] = system: carbapenem sensitive Pseudomonas aeruginosa; test: MIC by broth micro-dilution (CLSI), carbapenem sensitive P. aeruginosa; assay type: cell-based
[5] = Staphylococcus aureus, ATCC 29213 / MSSA, read-out: MIC
[6] = Escherichia coli, ATCC25922, ESBL −ve E. coli ATCC25922, read-out: MIC
[7] = Klebsiella pneumoniae, ATCCBAA1705, KPC-2 K. pneumoniae ATCC BAA-1705, read-out: MIC
[8] = Pseudomonas aeruginosa, ATCC27853, Meropenem susceptible P. aeruginosa ATCC27853, read-out: MIC
[9] = KPC-2 K. pneumoniae ATCC BAA-1705
[10] = Meropenem susceptible P. aeruginosa ATCC27853

MIC [1, 5] [µg/mL]	MIC [2, 6] [µg/mL]	MIC [3, 7] [µg/mL]	MIC [4, 8] [µg/mL]	MIC [1] [µg/mL]	MIC ([2]; ESBL −ve E. coli ATCC25922) [µg/mL]	MIC [3, 9] [µg/mL]	MIC [4, 10] [µg/mL]	MIC ([1]; Staphylococcus aureus, ATCC29213|MSSA, read-out: MIC) [µg/mL]	Compound
4 (≈ 8.12 µM)	0.5 (≈ 1.02 µM)	2 (≈ 4.06 µM)	16 (≈ 32.5 µM)						C[C@@H](NC(=O)Cn1cnnn1)[C@H]1C(=O)N2C(C(=O)O)=C(S[C@@H]3CN[C@H](CNC(=N)N)C3)[C@H](C)[C@H]12 [Example 589, (4R,5S,6R)-6-((R)-1-(2-(1H-tetrazol-1-yl)acetamido)ethyl)-3-((3S,5S)-5-(guanidinomethyl)pyrrolidin-3-ylthio)-4-methyl-7-oxo-1-azabicyclo[3.2.0]hept-2-ene-2-carboxylic acid]
16 (≈ 31.9 µM)	1 (≈ 1.99 µM)	32 (≈ 63.8 µM)	128 (≈ 255 µM)						C[C@@H](NC(=O)Cn1cnnn1)[C@H]1C(=O)N2C(C(=O)O)=C(Sc3cnn(C[C@@H]4CCNC4)c3)[C@H](C)[C@H]12 [Example 593, (4R,5S,6R)-6-((R)-1-(2-(1H-tetrazol-1-yl)acetamido)ethyl)-4-methyl-7-oxo-3-(1-((R)-pyrrolidin-3-ylmethyl)-1H-pyrazol-4-ylthio)-1-azabicyclo[3.2.0]hept-2-ene-2-carboxylic acid]
1 (≈ 1.75 µM)	32 (≈ 55.9 µM)	> 128	> 128						C[C@@H](NC(=O)Cn1cnnn1)[C@H]1C(=O)N2C(C(=O)[O-])=C(Sc3cnn(CC4CC[N+](C)(CCN)CC4)c3)[C@H](C)[C@H]12 (stereo partly drawn) [Example 594, (4R,5S,6R)-6-((R)-1-(2-(1H-tetrazol-1-yl)acetamido)ethyl)-3-(1-((1-(2-aminoethyl)-1-methylpiperidinium-4-yl)methyl)-1H-pyrazol-4-ylthio)-4-methyl-7-oxo-1-azabicyclo[3.2.0]hept-2-ene-2-carboxylate]
2 (≈ 3.45 µM)	1 (≈ 1.73 µM)	16 (≈ 27.6 µM)	32 (≈ 55.2 µM)						C[C@@H](NC(=O)Cn1cnnn1)[C@H]1C(=O)N2C(C(=O)[O-])=C(SCc3ccc(-c4cn(CCCN)[n+](C)c4)cc3)[C@H](C)[C@H]12 [Example 596, (4R,5S,6R)-6-((R)-1-(2-(1H-tetrazol-1-yl)acetamido)ethyl)-3-(4-(1-(3-aminopropyl)-2-methyl-1H-pyrazol-2-ium-4-yl)benzylthio)-4-methyl-7-oxo-1-azabicyclo[3.2.0]hept-2-ene-2-carboxylate]
4 (≈ 7.76 µM)	4 (≈ 7.76 µM)	32 (≈ 62.1 µM)	32 (≈ 62.1 µM)						C[C@@H](NC(=O)Cn1cnnn1)[C@H]1C(=O)N2C(C(=O)[O-])=C(Sc3cn(C[C@@H]4CCNC4)[n+](C)c3)[C@H](C)[C@H]12 [Example 597, (4R,5S,6R)-6-((R)-1-(2-(1H-tetrazol-1-yl)acetamido)ethyl)-4-methyl-3-(2-methyl-1-((R)-pyrrolidin-3-ylmethyl)-1H-pyrazol-2-ium-4-ylthio)-7-oxo-1-azabicyclo[3.2.0]hept-2-ene-2-carboxylate]
	1 (≈ 1.66 µM)	2 (≈ 3.32 µM)					16 (≈ 26.6 µM)	8 (≈ 13.3 µM)	C[C@@H](NC(=O)Cn1cnnn1)[C@H]1C(=O)N2C(C(=O)[O-])=C(S[C@@H]3CN[C@H](C(=O)N4CCC5C[N+](C)(C)CCC54)C3)[C@H](C)[C@H]12 (stereo partly shown) [Example 598]
				4 (≈ 6.65 µM)	1 (≈ 1.66 µM)	2 (≈ 3.32 µM)	4 (≈ 6.65 µM)		C[C@@H](NC(=O)Cn1cnnn1)[C@H]1C(=O)N2C(C(=O)[O-])=C(S[C@@H]3CN[C@H](C(=O)N4CCC5C[N+](C)(C)CCC54)C3)[C@H](C)[C@H]12 (stereo partly shown) [Example 599]

Second part, the compound before the results:

Compound	MIC [1, 5] [µg/mL]	MIC [2, 6] [µg/mL]	MIC [3, 7] [µg/mL]	MIC [4, 8] [µg/mL]	MIC [1] [µg/mL]	MIC ([2]; ESBL −ve E. coli ATCC25922) [µg/mL]	MIC [3, 9] [µg/mL]	MIC [4, 10] [µg/mL]	MIC ([1]; Staphylococcus aureus, ATCC29213|MSSA, read-out: MIC) [µg/mL]
C[C@@H](NC(=O)Cn1cnnn1)[C@H]1C(=O)N2C(C(=O)O)=C(S[C@@H]3CN[C@H](C(=O)N4C[C@@H](CO)[C@H](NC(=N)N)C4)C3)[C@H](C)[C@H]12 [Example 583, (4R,5S,6R)-6-((R)-1-(2-(1H-tetrazol-1-yl)acetamido)ethyl)-3-((3S,5S)-5-((3S,4R)-3-guanidino-4-(hydroxymethyl)pyrrolidine-1-carbonyl)pyrrolidin-3-ylthio)-4-methyl-7-oxo-1-azabicyclo[3.2.0]hept-2-ene-2-carboxylic acid]	1 (≈ 1.65 µM)	0.03 (≈ 0.0495 µM)	1 (≈ 1.65 µM)	0.5 (≈ 0.826 µM)					
C[C@@H](NC(=O)Cn1cnnn1)[C@H]1C(=O)N2C(C(=O)O)=C(S[C@@H]3CN[C@H](C(=O)N4C[C@@H](CO)[C@H](N)C4)C3)[C@H](C)[C@H]12 [Example 584, (4R,5S,6R)-6-((R)-1-(2-(1H-tetrazol-1-yl)acetamido)ethyl)-3-((3S,5S)-5-((3S,4R)-3-amino-4-(hydroxymethyl)pyrrolidine-1-carbonyl)pyrrolidin-3-ylthio)-4-methyl-7-oxo-1-azabicyclo[3.2.0]hept-2-ene-2-carboxylic acid]	2 (≈ 3.55 µM)	0.25 (≈ 0.444 µM)	1 (≈ 1.77 µM)	1 (≈ 1.77 µM)					
C[C@@H](NC(=O)Cn1cnnn1)[C@H]1C(=O)N2C(C(=O)O)=C(S[C@@H]3CN[C@H](C(=O)N4CC5C[C@@H](NC(=N)N)C[C@]5(CO)C4)C3)[C@H](C)[C@H]12 (stereo partly drawn) [Example 585, (4R,5S,6R)-6-((R)-1-(2-(1H-tetrazol-1-yl)acetamido)ethyl)-3-((3S,5S)-5-((3aR,5R)-5-guanidino-3a-(hydroxymethyl)octahydrocyclopenta[c]pyrrole-2-carbonyl)pyrrolidin-3-ylthio)-4-methyl-7-oxo-1-azabicyclo[3.2.0]hept-2-ene-2-carboxylic acid]	2 (≈ 3.1 µM)	0.125 (≈ 0.194 µM)	1 (≈ 1.55 µM)	4 (≈ 6.19 µM)					
CNCC(=O)N[C@H](C)[C@H]1C(=O)N2C(C(=O)O)=C(S[C@@H]3CN[C@H](C(=O)N4C[C@@H](O)[C@H](NC(=N)N)C4)C3)[C@H](C)[C@H]12 [Example 588, (4R,5S,6R)-3-((3S,5S)-5-((3R,4R)-3-guanidino-4-hydroxypyrrolidine-1-carbonyl)pyrrolidin-3-ylthio)-4-methyl-6-((R)-1-(2-(methylamino)acetamido)ethyl)-7-oxo-1-azabicyclo[3.2.0]hept-2-ene-2-carboxylic acid]	32 (≈ 57.9 µM)	4 (≈ 7.24 µM)	4 (≈ 7.24 µM)	4 (≈ 7.24 µM)					
C[C@@H](NC(=O)Cn1cnnn1)[C@H]1C(=O)N2C(C(=O)O)=C(S[C@@H]3CN[C@H](C(=O)N4CC5CNC5C4)C3)[C@H](C)[C@H]12 (stereo partly drawn) [Example 591, (4R,5S,6R)-6-((R)-1-(2-(1H-tetrazol-1-yl)acetamido)ethyl)-3-((3S,5S)-5-(3,6-diazabicyclo[3.2.0]heptane-3-carbonyl)pyrrolidin-3-ylthio)-4-methyl-7-oxo-1-azabicyclo[3.2.0]hept-2-ene-2-carboxylic acid]					2 (≈ 3.67 µM)	0.25 (≈ 0.458 µM)	1 (≈ 1.83 µM)	1 (≈ 1.83 µM)	
C[C@@H](NC(=O)Cn1cnnn1)[C@H]1C(=O)N2C(C(=O)O)=C(S[C@@H]3CN[C@H](C(=O)N4C[C@H](CO)[C@@H](NC(=N)N)C4)C3)[C@H](C)[C@H]12 [Example 592, (4R,5S,6R)-6-((R)-1-(2-(1H-tetrazol-1-yl)acetamido)ethyl)-3-((3S,5S)-5-((3R,4S)-3-guanidino-4-diazabicyclo[3.2.0]heptane-3-(hydroxymethyl)pyrrolidine-1-carbonyl)pyrrolidin-3-ylthio)-4-methyl-7-oxo-1-azabicyclo[3.2.0]hept-2-ene-2-carboxylic acid]	2 (≈ 3.3 µM)	0.125 (≈ 0.206 µM)	0.5 (≈ 0.826 µM)	0.5 (≈ 0.826 µM)					
